Data on 7 compounds can be found in patent US9120789B2, “1-(5-tert-butyl-2-phenyl-2H-pyrazol-3-yl)-3-[2-fluoro-4-(1-methyl-2-oxo-2,3-dihydro-1H-imidazo[4,5-b]pyridin-7-yloxy)-phenyl]-urea and related compounds and their use in therapy” (CANCER RESEARCH TECHNOLOGY LIMITED, priority 2010, dated 2015).

Assay [1] has as its system WM266.4 melanoma cell line (mutant BRAF). The experiment in a line: Assay C - SRB cell proliferation assay, WM266.4. In kind it is cell-based. The conditions noted are these: Homo sapiens, WM 266-4, 120 h; WM266.4, 5 days growth. How it is done:
(§1) Values for the blank (no cells) are subtracted from all values. The DMSO controls are set as 100% activity and assay points (the response) are calculated as a percentage of the DMSO control. Data are plotted using Graphpad Prism software and a non-linear regression line is calculated using a variable slope sigmoidal dose-response equation: Y=Bottom+[Top−Bottom]/[1+10^((Log EC50−X)*HillSlope)] where X is the logarithm of concentration and Y is the response). The IC50 generated by this procedure is the concentration of the drug that produces a percentage control fluorescence value midway between the saturation, and zero-effect plateaus. Three independent assays are usually performed and the mean IC50 is reported. Biological Methods—Assay C—SRB Cell Proliferation Assay (SRB GI50)
(§2) Cell lines (e.g., WM266.4 and A375M melanoma cell lines; SW620 colorectal carcinoma cell line) are routinely cultured in DMEM or RPMI1640 supplemented with 10% foetal bovine serum, at 37° C., in 10% CO2 water saturated atmosphere. Cultures are maintained in exponential growth phase by sub-culturing before having become confluent (3-5 day intervals). Single cell suspensions are prepared by harvesting an 80 cm^2 tissue culture flask with 5 mL commercial trypsin EDTA. After 5 minutes, the detached cells are mixed with 5 mL fully complemented culture medium and centrifugally pelleted (1000 rpm for 7 minutes). After aspirating the supernatant, the cell pellet is re-suspended in 10 mL fresh medium and the cells fully disaggregated by drawing the whole volume up/down 5 times through a 19-gauge needle. The concentration of the cells is determined using a haemocytometer ( 1/10 dilution). A suitable volume to give at least a 2-fold excess for the number of tests being conducted, typically 100-200 mL, is prepared by diluting the cell suspension to 10,000-40,000/mL, and 100 μL/well dispensed into 96 well plates using a programmable 8-channel peristaltic pump, giving 1000-4000 cells/well, leaving column 12 blank. The plates are returned to the incubator for 24 hours to allow the cells to re-attach.
(§3) The compounds being tested are prepared at 10 mM in DMSO. Aliquots (24 μL) are diluted into 1.2 mL culture medium giving 200 μM, and 10 serial dilutions of 3× performed by transferring 80 μL to 160 μL. Aliquots (100 μL) of each dilution are added to the wells, using an 8-channel pipettor, thus performing a final further 2× dilution, and giving doses ranging from 100 μM to 0.005 μM. Column 11 receives plain culture medium only. Each compound is tested in quadruplicate, each replicate being the average of four wells.
(§4) After a further 5 days growth, the plates are emptied, and the cells are fixed in 10% trichloroacteic acid for 30 minutes at 4° C. After thorough rinsing in running tap water, the plates are dried, and stained by adding 50 μL of a solution of 0.1% sulphorhodamine-B in 1% acetic acid, for 10 minutes at room temperature. The stain is poured out and the plates thoroughly rinsed under a stream of 1% acetic acid, thus removing unbound stain, and dried. The bound stain is taken into solution by addition of 100 μL Tris buffer pH 8, followed by 10 minutes on a plate-shaker (approximately 500 rpm). The absorbance at 540 nm in each well (being proportional to the number of cells present) is determined using a plate reader.
(§5) After averaging the blank values in column 12 this was subtracted from all values, and results expressed as a percentage of the untreated value (column 11). […] The GI50 generated by this procedure is the concentration of the drug that produces a percentage control A540 midway between the saturation, and zero-effect plateaus.

In assay [2] the test system is SW620 human colorectal carcinoma cells (mutant RAS) xenograft. The experiment in a line: Xenograft study, mutant RAS SW620. It counts as in vivo, mice. The conditions noted are these: for Effect on tumour volume as compared to the control (in words) / Factor of tumour volume reduction as compared to the control: SW620 xenograft; for Ratio of: Tumour Volume (Treatment)/Tumour Volume (Control) (mutant RAS SW620 xenograft): athymic mice, gavage once daily for 24 doses; for Factor of tumour volume reduction as compared to the control: over the timescale of the study. Here is the method:
Biological Methods—Xenograft Studies
SW620 human colorectal carcinoma cells (mutant RAS, 7×10^7) or A375M human melanoma cells (mutant BRAF, 10^7) were inoculated sub-cutaneously in suspension (0.2 mL) into the right flank of female Crl:CD1-Foxn1nu athymic mice. Groups were assigned to treatment following stratified allocation of tumour volumes. Treatment with test compound began between days 11-14 post-cell administration. For gavage, a suspension (DMSO:water, 1:19, v/v at 10 m L/kg) was administered. Control animals received a similar dosage of vehicle (DMSO:water, 1:19, v/v). Treatment with test compound was continued once daily for 24 doses.

Assay [3] concerns pERK in mutant BRAF WM266.4 cells. Description: Assay B - cell based phospho-ERK assay. The note with it: Homo sapiens, WM 266-4, 6 hours incubation. Here is the method:
as §1, with “(Empty Vector)” for “(no cells)”, “response.” for “response).”, “B—Cell Based Phosho-ERK” for “C—SRB Cell Proliferation”, “Assay” for “Assay (SRB GI50)”
Compounds were assessed using a cell-based assay which was performed according to the following protocol.
Plate out 16,000 mutant BRAF WM266.4 cells/well in 99 μL medium in a 96-well plate.
1. Add 1 μL inhibitor (test compound) to the cells (total […]).
2. Incubate the cells with test compound for 6 hours at 37° C.
3. Aspirate off the solution from all of the wells.
4. Fixate the cells with 100 μL 4% formaldehyde/0.25% Triton X-100 PBS per well.
5. Incubate the plate for 1 hour at 4° C.
6. Aspirate off the fixing solution and add 300 μL TBS per well.
7. Leave the plate overnight at 4° C.
1. Wash the plate 2× with 200 μL PBS per well.
2. Block with 100 μL 5% dried milk in TBS.
3. Incubate the plate for 20 minutes at 37° C.
4. Wash the plate 2× with 0.1% tween/H2O.
5. Add 50 μL of 3 μg/mL primary antibody pERK (Sigma M8159), diluted in 5% milk powder/TBS, to each well.
6. Incubate the plate for 2 hours at 37° C.
7. Wash the plate 3× with 0.1% tween/H2O.
8. Add 50 μL of 0.45 μg/mL secondary Europium-labelled anti-mouse antibody (Perkin Elmer) to each well.
9. Incubate the plate for 1 hour at 37° C.
10. Wash the plate 3× with 0.1% tween/H2O.
11. Add 100 μL enhancement solution (Perkin Elmer) to each well.
12. Leave the plate for approximately 10 minutes at room temperature before gently shaking the plate.
13. Read Europium Time Resolved Fluorescence in Victor2.
14. Wash the plate 2× with 0.1% tween/H2O.
15. Measure the protein concentration with BCA (Sigma) by adding 200 μL of solution per well.
16. Incubate the plate for 30 minutes at 37° C.
17. Read absorbance levels at 570 nm in a plate reader.
Note that Europium counts are normalised for protein levels by dividing counts by absorbance.
as §1

For assay [4], the system named is A375M melanoma cell line (mutant BRAF). The experiment in a line: Assay C - SRB cell proliferation assay, A375M. The note with it: Homo sapiens, 120 h, 5 days growth. It counts as cell-based. Here is the method:
as §1, §2, §3, §4, §5

Each structure is given as a SMILES string. Where only a bound is given, the exact number is not on record here.

The GI50 is the concentration giving 50% growth inhibition. Broadly, the IC50 is the concentration that gives 50% inhibition.

`CC(C)(C)c1cc(NC(=O)Nc2ccc(Oc3ccnc4[nH]c(=O)[nH]c34)cc2)n(-c2ccc(F)cc2)n1` [XX-04, 1-[5-tert-Butyl-2-(4-fluoro-phenyl)-2H-pyrazol-3-yl]-3-[4-(2-oxo-2,3-dihydro-1H-imidazo[4,5-b]pyridin-7-yloxy)-phenyl]urea] came in with a GI50 in assay [1] of 20 nM. Besides, in assay [2], the “Effect on tumour volume as compared to the control (in words)” value is listed as “relatively little effect” and the “Ratio of: Tumour Volume (Treatment)/Tumour Volume (Control) (mutant RAS SW620 xenograft)” value (“Ratio of: Tumour Volume” for short) amounted to 0.87. The same compound came in with an IC50 in assay [3] of 200 nM. The GI50 in assay [4] was found to be 307 nM.
`Cc1ccc(-n2nc(C(C)(C)C)cc2NC(=O)Nc2ccc(Oc3ccnc4[nH]c(=O)n(C)c34)c3ccccc23)cc1` [BB-02, 1-(1-N-p-tolyl-3-tert-butyl-pyrazol-5-yl)-3-(4-(2-oxo-2,3-dihydro-1-N-methyl-1H-imidazo[4,5-b]pyridin-7-yl-oxy)naphthalen-1-yl)urea]: halving of growth in assay [1] (GI50) required 16 nM. In assay [2], the “Effect on tumour volume as compared to the control (in words)” value is given as “statistically significant efficacy”, the “Factor of tumour volume reduction as compared to the control” value is “about 1.5” and the “Ratio of: Tumour Volume” value came out at 0.66. Also, the IC50 in assay [3] stood at 26 nM. In addition, the GI50 in assay [4] worked out at 101 nM.
On to `CC(C)(C)c1cc(NC(=O)Nc2ccc(Oc3ccnc4[nH]c(=O)[nH]c34)cc2)n(-c2ccccc2)n1` [XX-01, 1-(5-Tert-butyl-2-phenyl-2H-pyrazol-3-yl)-3-[4-(2-oxo-2,3-dihydro-1H-imidazo[4,5-b]pyridin-7-yloxy)-phenyl]-urea], for which it took 390 nM to inhibit growth in assay [1] by half (GI50). Further, in assay [2], the “Effect on tumour volume as compared to the control (in words)” value is recorded as “relatively little effect” and the “Ratio of: Tumour Volume” value is >1. Half-maximal inhibition in assay [3] (IC50) required 620 nM. For the same compound, in assay [4], halving of growth (GI50) required 1130 nM.
As for `Cn1c(=O)[nH]c2nccc(Oc3ccc(NC(=O)Nc4cc(C(C)(C)C)nn4-c4ccccc4)c4ccccc34)c21` [BB-01, 1-(3-Tert-butyl-1-phenyl-1H-pyrazol-5-yl)-3-(4-(1-methyl-2-oxo-2,3-dihydro-1H-imidazo[4,5-b]pyridin-7-yloxy)naphthalen-1-yl)urea], the values for the GI50 in assay [1] and in assay [4] were 8 nM and 52 nM, respectively. In assay [3], inhibition was half-maximal at 19 nM (IC50).
Consider `Cn1c(=O)[nH]c2nccc(Oc3ccc(NC(=O)Nc4cc(C(C)(C)C)nn4-c4ccccc4)c(F)c3)c21` [AA-01, 1-(3-Tert-butyl-1-phenyl-1H-pyrazol-5-yl)-3-(2-fluoro-4-(1-N-methyl-2-oxo-2,3-dihydro-1H-imidazo[4,5-b]pyridin-7-yloxy)phenyl)urea], for which, in assay [1], the GI50 was 52 nM. Moreover, in assay [2], the “Effect on tumour volume as compared to the control (in words)” value was “statistically significant efficacy”, the “Factor of tumour volume reduction as compared to the control” value is “about 3” and the “Ratio of: Tumour Volume” value is given as 0.34. For the same compound, the IC50 in assay [3] turned out to be 260 nM. In assay [4], this compound gave a GI50 of 138 nM.
As to `Cn1c(=O)n(C)c2c(Oc3ccc(NC(=O)Nc4cc(C(C)(C)C)nn4-c4ccccc4)c(F)c3)ccnc21` [XX-03, 1-(3-Tert-butyl-1-phenyl-1H-pyrazol-5-yl)-3-(4-(1,3-dimethyl-2-oxo-2,3-dihydro-1H-imidazo[4,5-b]pyridin-7-yloxy)-2-fluorophenyl)urea], the GI50 in assay [1] is 33 nM. Also, in assay [2], the “Effect on tumour volume as compared to the control (in words)” value is reported as “relatively little effect” and the “Ratio of: Tumour Volume” value worked out at 0.97. In assay [3], this compound registered an IC50 of 120 nM. Moreover, in assay [4], the GI50 was 247 nM.
As for `Cc1ccc(-n2nc(C(C)(C)C)cc2NC(=O)Nc2ccc(Oc3ccnc4[nH]c(=O)n(C)c34)cc2)cc1` [XX-02, 1-(1-N-p-tolyl-3-tert-butyl-pyrazol-5-yl)-3-(4-(2-oxo-2,3-dihydro-1-N-methyl-1H-imidazo[4,5-b]pyridin-7-yl-oxy)phenyl)urea], the GI50 in assay [1] turned out to be 66 nM; in assay [4], 250 nM. Moreover, the “Effect on tumour volume as compared to the control (in words)” value in assay [2] is listed as “relatively little effect”. Further, the “Ratio of: Tumour Volume” value in assay [2] is 0.95. The IC50 in assay [3] worked out at 90 nM.
